Measurements as given in patent publication US20230089267A1, “Compositions and Methods For Reducing Immune Intolerance and Treating Autoimmune Disorders” (Lapix Therapeutics, Inc., priority 2021, published 2023).

Assays:
[1] = Pilot stability study of oral solution with HPBCD; type: physicochemical
Description: Oral dosing solutions of different concentrations of Compound 2 were compounded ranging from 0.02 mg/ml to 3 mg/ml using a 1:80 ratio of Compound 2:HPBCD. Briefly, the compounding was performed by weighing and dissolving HPBCD in sterile HPLC grade water. Then, Compound 2 was weighed and added to the HPBCD solution in an appropriate container. To enhance dissolution, sonication and magnetic stirring were alternated to obtain a clear solution. Then, the solution was dispensed into PET amber bottles, appropriately labeled and stored under refrigeration until dosing.
A pilot stability study was performed on a 0.7 mg/ml Compound 2 oral solution at three temperatures: −20° C., 4° C., and room temperature (RT).
Samples were also subjected to three freeze-thaw cycles (−20° C. to room temperature). Solutions were evaluated for clarity. […] The potency of these solutions was also determined using an LC/MS assay.

[2] = system: MOG35-55-induced murine EAE model; assay: Induction/maintenance treatment paradigm in MOG35-55-induced murine EAE model (Example 9); type: in vivo, mice
Description: Compound 2, natalizumab and DMF were prepared as described in Example 8. Table 5 (see Example 4) details the expected clinical symptoms and scoring criteria used in this study.
This study was designed to evaluate the therapeutic effects of Compound 2 versus natalizumab in a treatment induction/maintenance paradigm (induction cohort), and Compound 2 versus DMF after natalizumab (maintenance cohort). In the induction cohorts, animals were randomized 2:1:1 natalizumab:Compound 2:control when they reached a score of 2.5, as per FIG. 6A. Animals in the natalizumab cohort were given 100 μg natalizumab/mouse every 3 days for 3 doses before being randomized to the maintenance cohort. Animals randomized into the maintenance cohort after natalizumab received maintenance doses of DMF or Compound 2 (1:1 randomization), as per their group assignment for 14 days. Animals in the Compound 2 induction cohort were dosed with 30 μg Compound 2/mouse SC QD for a maximum of 7 days, or 3 consecutive days of disease score <2.5, at which time they were placed on a maintenance dose of 3 μg/mouse SC QD for 14 days. All animals in all groups were monitored for 14 days after the last dose for disease score and survival.
Disease control (induction therapy): Disease control was defined as maintaining a clinical score of 2.5 or less after randomization. Animals in the different treatment groups were monitored after the 2:1:1 randomization. Clinical scores were recorded daily for all animals and plotted over time. A score of >2.5 was recorded as an event and analyzed by survival analysis in GraphPad Prism 9. Animals not reaching a clinical score of 2.5 by the end of the induction period (day 7) were assigned a score of zero for the survival analysis.
Survival (induction therapy): Death due to disease (clinical score 5) during the treatment induction period was recorded as an event “1”, animals surviving until the end of the induction period, day 7 after randomization, were censored on day 7 for the purposes of survival analysis.
Disease control (maintenance therapy): At the end of the induction period with natalizumab, animals were randomized 1:1 to the DMF maintenance group or Compound 2 maintenance group as per FIG. 6A. Animals were dosed for 14 days, and clinical scores were monitored daily.
Survival (maintenance therapy): Death by disease (clinical score of 5) was recorded as an event “1”, death due to ulceration or ex vivo analysis was recorded as “0”. Animals surviving until the end of the study were recorded as “0” on the last day of the study. Survival analysis was done in GraphPad Prism 9.

[3] = system: FoxP3+/CD4+ T-cells in splenocytes from naïve C57BL/6 mice; assay: In vitro dose-response, percent FoxP3+/CD4+ T-cells in murine splenocytes; type: cell-based
Description: All animal studies were conducted under IACUC number B2020-91 and in compliance with Tufts University/Tufts Medical Center & Human Nutrition Research Center on Aging. Animals were housed four in a cage and had access to food and water ad libitum. Anti-FoxP3 and anti-CD4 for flow cytometry were obtained from eBioscience. Compounds 1-3 were formulated with 10% DMPC in PBS. PS liposomes were synthesized at a 30:70 PS:lipid molar ratio.
Splenocytes from naïve C57BL/6 mice were stained with CFSE, seeded at 2×10^5 cells/well, and dosed with each compound from 1e^−4 μM to 3.0e^−9 μM using a log 2 dilution scheme. Cells were incubated for 72 hours before phenotyping for FoxP3+/CD4+ T-cells. Flow cytometer analysis was performed to assess changes in percent FoxP3+/CD4+ T-cells as a function of compound and dose. Concentration versus response was fitted to a 4-parameter, log-logistic model using the “dre” package in “R”. Both EC50 and EC90 were obtained by model fitting.
Cells were observed via a microscope at the end of the incubation period. All cells looked healthy and suitable for flow cytometry analysis.
Table 2 summarizes EC50 and EC90 values obtained from the model fitting.

[4] = system: FoxP3+/CD4+ T-cells (spleen); assay: Pharmacodynamics of a single ascending dose in mice, splenic T-cell phenotyping; type: in vivo; details: for percent of FoxP3+/CD4+ T-cells, mean: single dose, spleen five days after dose
Description: All animal studies were conducted under IACUC number B2020-91 and in compliance with Tufts University/Tufts Medical Center & Human Nutrition Research Center on Aging. Animals were housed 4 per cage and had access to food and water ad libitum. Compound 2 was formulated with 10% DMSO in PBS buffer.
This study was designed to evaluate the PD effects of a single dose of Compound 2 in mice. Animals were administered a single oral gavage, as per their group assignment. Five days after the oral dose, animals were sacrificed, and their spleens were collected for T-cell phenotyping. FIG. 2A is a schematic diagram of the study design.
For ex vivo analysis, spleens were collected for splenocyte analysis, and prepared into a single-cell suspension for cellular phenotyping by flow cytometry. Cells were stained and gated for CD4. Percent FoxP3+/CD4+ T-cells and percent FoxP3+/NRP1+ were evaluated using flow cytometry. For dose-response analysis, dose versus response was fitted to 4- and 5-parameters, log-logistic models using the “dre” package in “R”. Both EC50 and EC90 were obtained by model fitting.

[5] = Compound 2 induction followed by Compound 2 maintenance
[6] = Mus musculus, T-cell, percent FoxP3+/CD4+ T-cells, 72 hours, 4-parameter log-logistic model fit
[7] = four-parameter dose-response model, single dose per mouse

N[C@@H](CNC(=O)Cc1ccc(OCc2cccc3ccccc23)cc1)C(=O)O [Compound 2, (S)-2-Amino-3-(2-(4-(naphthalen-1-ylmethoxy)phenyl)acetamido)propanoic acid]
potency on storage ([1]; 0.7 mg/ml oral solution, −20° C., 4° C. and room temperature): Potency was maintained over a minimum period of three months at all storage conditions
potency after storage and freeze-thaw cycles, LC/MS assay ([1]; 3-month storage and several freeze-thaw cycles): Potency was maintained
clarity after three freeze-thaw cycles ([1]; oral solution, −20° C. to room temperature): No precipitation was observed, and all solutions maintained clarity
clinical score on the last day of dosing [2, 5]: 2.2 (SD=0.3)
mean score on the first day of maintenance therapy [2, 5]: 2.3 (SD=0.4)
mice showing clinical score improvement and switched to maintenance before end of induction period ([2]; induction period): at least 4 out of the 10
animals that survived the treatment induction period ([2]; induction period, day 7 after randomization): 9/9
last measured score, day 7 after initiation of maintenance ([2]; maintenance after natalizumab induction): 2.5 (SD=0)
mortality rate in maintenance cohort ([2]; maintenance after natalizumab induction, n=4 in each group): 0%
survival in maintenance cohort ([2]; maintenance after natalizumab induction, to end of study): All animals randomized to Compound 2 maintenance after natalizumab induction survived until the end of the study
mean clinical score by day 7 of induction ([2]; randomized at score 2.5, Compound 2 30 μg SC): 2.25 (SD=0.26)
animals that progressed to a clinical score >2.5 during induction ([2]; randomized at score 2.5, natalizumab 100 μg/mouse every 3 days, Compound 2 30 μg SC): 0/10
EC50 [3, 6]: 6.02 pM
EC90 [3, 6]: 19.9 pM
mean FoxP3+/CD4+ T-cells, upper plateau, mean (SEM) ([3]; high dose, from model fitting): 4.54 (0.14) %
dose-response behaviour of FoxP3+/CD4+ T-cells ([3]; in words): showed a clear plateau
mean FoxP3+/CD4+ T-cells, lower plateau, mean (SEM) ([3]; low dose, from model fitting): 2.20%
ED50 for FoxP3+/CD4+ T-cells [4, 7]: 4.88 µg
ED90 for FoxP3+/CD4+ T-cells [4, 7]: 82.1 µg
increase of the number of FoxP3+/CD4+ T-cells (T-reg) ([4]; from the lowest dose to the highest dose group): 150%
percent of FoxP3+/CD4+ T-cells, mean ([4]; highest dose group): 25.4%
percent of FoxP3+/CD4+ T-cells, mean ([4]; lowest dose group): 10.7%
